Laboratory results: ChEMBL document CHEMBL3301562, “MMV Box screening against Plasmodium falciparum protein kinases and aminoacyl tRNA synthetases”

What was measured:
Assay type in all cases: functional
[1] = target: Calcium-dependent protein kinase 1 (Plasmodium falciparum, UniProt P62344); assay: MMV: CDPK1 Protein kinase inhibition assay using recombinant PfCDPK1, syntide 2 peptide substrate, ATP and KinaseGlo to measure % inhibition at 1 uM MMV box compound.
[2] = target: T1, Putative uncharacterized protein pk7 (Plasmodium falciparum, UniProt O96214); assay: Final concentrations were 1 uM ATP, 2 mM DTT, 20 mM MgCl2, 2 mM MnCl2, 0.01% BSA, and 6 ug/ml PK7, in a buffer of 20 mM Tris-HCl (pH 7.5). The enzyme itself was the only substrate present (since autophosphorylation occurs); 100 uM 1NA-PP1 was used as a control inhibitor. Incubation time was 3 hours.
T1 sequence (O96214 whole entry): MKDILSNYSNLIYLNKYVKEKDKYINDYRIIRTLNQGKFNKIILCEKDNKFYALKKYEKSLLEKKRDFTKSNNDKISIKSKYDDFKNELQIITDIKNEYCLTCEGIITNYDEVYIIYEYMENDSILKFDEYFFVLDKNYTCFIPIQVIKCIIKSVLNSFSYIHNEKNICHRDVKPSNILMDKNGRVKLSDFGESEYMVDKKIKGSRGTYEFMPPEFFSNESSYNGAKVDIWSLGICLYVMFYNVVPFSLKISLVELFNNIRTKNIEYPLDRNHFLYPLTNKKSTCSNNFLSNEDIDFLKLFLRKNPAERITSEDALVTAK

[3] = target: T2, Calcium-dependent protein kinase 4 (Plasmodium falciparum (isolate 3D7), UniProt Q8IBS5); assay: MMV: CDPK4 Protein kinase inhibition assay using recombinant PfCDPK4, syntide2 peptide substrate, ATP and KinaseGlo to measure % inhibition at 1 uM MMV box compound.
T2 sequence (Q8IBS5 whole entry): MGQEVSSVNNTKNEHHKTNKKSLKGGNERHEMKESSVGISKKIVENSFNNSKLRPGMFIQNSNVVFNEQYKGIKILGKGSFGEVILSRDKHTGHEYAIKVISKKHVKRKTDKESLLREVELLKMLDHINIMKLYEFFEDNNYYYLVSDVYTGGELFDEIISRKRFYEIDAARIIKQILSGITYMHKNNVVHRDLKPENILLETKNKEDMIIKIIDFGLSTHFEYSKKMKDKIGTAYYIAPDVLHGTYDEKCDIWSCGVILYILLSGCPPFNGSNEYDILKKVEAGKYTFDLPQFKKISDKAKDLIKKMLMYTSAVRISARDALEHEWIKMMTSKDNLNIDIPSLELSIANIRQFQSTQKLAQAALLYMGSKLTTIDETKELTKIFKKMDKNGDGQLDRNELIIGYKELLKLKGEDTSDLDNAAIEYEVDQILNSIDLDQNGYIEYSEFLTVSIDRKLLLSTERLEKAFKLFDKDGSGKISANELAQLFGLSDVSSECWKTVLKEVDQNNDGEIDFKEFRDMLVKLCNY

Lysine--tRNA ligase = Lysine--tRNA ligase (Plasmodium falciparum (isolate 3D7), UniProt Q8IDJ8); assay: MMV: KRS recombinant Plasmodium falciparum Lysyl-tRNA-synthetase, assay with yeast tRNA, ATP, and lysine and 3 uM MMV malaria box compound, assay read out with kinase glo as % inhibition.
[4] = target: T3, Mitogen-activated protein kinase (Plasmodium falciparum, UniProt Q25917); assay: Final concentrations were 1 uM ATP, 0.5 mM DTT, 1 mM MgCl2, 0.5 mg/mL BSA, and 10 ug/ml MAP2 in a buffer of 50 mM HEPES (pH 7.0). 0.5 mg/mL histone III-S served as the substrate (13); 100 uM AMP-PNP, an ATP analog, was used as a control inhibitor. Incubation time was 4 hours.
T3 sequence (Q25917 whole entry): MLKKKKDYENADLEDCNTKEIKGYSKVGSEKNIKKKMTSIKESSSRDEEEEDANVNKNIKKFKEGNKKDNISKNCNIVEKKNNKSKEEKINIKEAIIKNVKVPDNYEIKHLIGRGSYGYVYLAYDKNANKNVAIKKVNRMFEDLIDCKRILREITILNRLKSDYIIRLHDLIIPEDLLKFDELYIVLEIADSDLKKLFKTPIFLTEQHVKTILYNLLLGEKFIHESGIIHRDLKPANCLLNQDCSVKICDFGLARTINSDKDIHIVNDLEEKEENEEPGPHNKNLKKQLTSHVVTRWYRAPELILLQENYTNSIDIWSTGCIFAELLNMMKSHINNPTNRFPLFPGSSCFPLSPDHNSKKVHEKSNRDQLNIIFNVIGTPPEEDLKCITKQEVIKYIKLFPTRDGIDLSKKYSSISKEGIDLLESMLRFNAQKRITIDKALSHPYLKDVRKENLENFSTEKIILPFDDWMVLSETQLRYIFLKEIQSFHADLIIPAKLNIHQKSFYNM

[5] = target: T4, Cdk-related protein kinase 6 (Plasmodium falciparum, UniProt O77239); assay: Final concentrations were 1.5 uM ATP, 5 mM MnCl2, and 15 ug/ml PK6 in a buffer of 100 mM Tris-HCl (pH 7.5). 50 ug/mL MBP was provided as the substrate; 10 uM staurosporine was used as a control inhibitor. Incubation time was 3 hours and 40 minutes.The catalytic activity of each kinase was considered proportional to ATP consumed, as determined from measurements of residual [ATP] with the luciferase-based reagent Kinase-Glo (Promega) following incubation. Luminescence (proportional to residual [ATP]) was measured on the plate readers FLx800 (BioTek Instruments, Winooski, VT, USA) and MicroBeta2.
T4 sequence (O77239 whole entry): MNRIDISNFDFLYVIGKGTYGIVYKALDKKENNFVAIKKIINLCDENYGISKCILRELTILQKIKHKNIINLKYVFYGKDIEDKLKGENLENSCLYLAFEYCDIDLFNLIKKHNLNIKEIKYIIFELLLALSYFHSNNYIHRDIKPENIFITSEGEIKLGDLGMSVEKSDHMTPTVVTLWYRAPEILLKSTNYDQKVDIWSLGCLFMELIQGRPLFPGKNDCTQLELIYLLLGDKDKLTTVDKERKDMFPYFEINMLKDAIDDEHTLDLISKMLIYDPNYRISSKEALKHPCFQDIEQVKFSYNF

Proline--tRNA ligase = target: T5, Proline--tRNA ligase (Plasmodium falciparum (isolate 3D7), UniProt Q8I5R7); assay: MMV: ProRS recombinant Plasmodium falciparum Prolyl-tRNA-synthetase, assay with yeast tRNA, ATP, and proline and 3 uM MMV malaria box compound, assay read out with kinase glo as % inhibition.
T5 sequence (Q8I5R7 whole entry): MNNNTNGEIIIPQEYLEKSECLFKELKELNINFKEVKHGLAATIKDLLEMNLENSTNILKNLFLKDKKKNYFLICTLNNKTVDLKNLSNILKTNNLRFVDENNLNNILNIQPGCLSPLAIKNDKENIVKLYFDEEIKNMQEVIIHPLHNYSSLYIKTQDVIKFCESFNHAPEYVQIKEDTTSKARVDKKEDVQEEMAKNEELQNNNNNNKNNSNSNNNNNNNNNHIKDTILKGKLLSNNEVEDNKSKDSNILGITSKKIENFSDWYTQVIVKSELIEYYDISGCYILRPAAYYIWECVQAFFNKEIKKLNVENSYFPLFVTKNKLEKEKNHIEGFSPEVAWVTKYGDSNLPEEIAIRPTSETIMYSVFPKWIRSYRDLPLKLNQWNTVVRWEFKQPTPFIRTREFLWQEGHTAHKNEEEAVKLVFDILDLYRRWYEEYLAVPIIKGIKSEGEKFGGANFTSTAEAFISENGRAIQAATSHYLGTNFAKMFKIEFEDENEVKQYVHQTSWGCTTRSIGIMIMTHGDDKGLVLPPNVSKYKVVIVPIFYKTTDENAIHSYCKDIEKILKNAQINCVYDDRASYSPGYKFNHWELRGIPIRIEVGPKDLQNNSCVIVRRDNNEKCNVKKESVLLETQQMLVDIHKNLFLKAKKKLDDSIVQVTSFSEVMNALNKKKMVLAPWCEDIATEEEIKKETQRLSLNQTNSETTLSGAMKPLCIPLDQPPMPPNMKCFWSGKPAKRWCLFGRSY

Lysine--tRNA ligase, sequence (Q8IDJ8 whole entry): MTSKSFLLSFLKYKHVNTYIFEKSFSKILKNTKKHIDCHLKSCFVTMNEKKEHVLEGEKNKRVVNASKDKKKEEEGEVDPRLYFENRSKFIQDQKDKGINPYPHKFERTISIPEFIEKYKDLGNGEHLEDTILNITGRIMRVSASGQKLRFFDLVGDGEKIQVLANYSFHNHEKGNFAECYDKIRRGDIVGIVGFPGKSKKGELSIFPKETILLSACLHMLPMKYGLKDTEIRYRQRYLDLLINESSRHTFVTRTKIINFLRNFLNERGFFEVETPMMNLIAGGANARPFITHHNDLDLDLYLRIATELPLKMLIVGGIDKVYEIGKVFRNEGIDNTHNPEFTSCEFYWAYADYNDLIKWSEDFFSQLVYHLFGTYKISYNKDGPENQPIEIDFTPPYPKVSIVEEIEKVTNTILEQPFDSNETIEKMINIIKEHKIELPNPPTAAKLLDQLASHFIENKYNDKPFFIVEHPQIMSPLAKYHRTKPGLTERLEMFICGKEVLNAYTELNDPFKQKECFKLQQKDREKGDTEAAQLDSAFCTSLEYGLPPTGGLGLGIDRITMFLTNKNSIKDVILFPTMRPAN
Calcium-dependent protein kinase 1, sequence (P62344 whole entry): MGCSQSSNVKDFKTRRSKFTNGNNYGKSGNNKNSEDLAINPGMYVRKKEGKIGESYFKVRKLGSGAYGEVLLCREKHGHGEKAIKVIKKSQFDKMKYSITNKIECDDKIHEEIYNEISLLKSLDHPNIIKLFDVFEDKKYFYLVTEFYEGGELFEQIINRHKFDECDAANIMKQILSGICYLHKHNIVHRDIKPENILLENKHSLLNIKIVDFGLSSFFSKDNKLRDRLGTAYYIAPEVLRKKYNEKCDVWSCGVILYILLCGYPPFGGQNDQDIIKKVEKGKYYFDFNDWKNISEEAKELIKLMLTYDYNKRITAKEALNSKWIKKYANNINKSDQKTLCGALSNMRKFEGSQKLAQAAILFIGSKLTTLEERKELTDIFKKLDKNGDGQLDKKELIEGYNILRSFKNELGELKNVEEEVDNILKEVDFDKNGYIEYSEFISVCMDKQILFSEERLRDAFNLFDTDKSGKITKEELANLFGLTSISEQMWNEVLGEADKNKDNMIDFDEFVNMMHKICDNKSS

Compound	IC50 [1] [µM]	IC50 [2] [µM]	IC50 [3] [µM]	IC50 (Lysine--tRNA ligase) [µM]	IC50 [4] [µM]	IC50 [5] [µM]	IC50 (Proline--tRNA ligase) [µM]
COc1ccc(C2c3ccc4ccccc4c3Oc3ncn(CCCN(C)C)c(=N)c32)cc1 (stereo not given)	> 1	> 1	> 1	> 2.5	> 1	> 1	> 2.5
c1ccc(/C2=N/c3ccccc3/N=C(/c3ccccc3)c3ccccc32)cc1	> 1	> 1	> 1	> 2.5	> 1	> 1	> 2.5
CCOC(=O)c1c(C)n(-c2ccccc2)c2ccc(OC(=O)c3cc(OC)c(OC)c(OC)c3)cc12	> 1	> 1	> 1	> 2.5	> 1	> 1	> 2.5
COc1ccc(C2c3ccc4ccccc4c3Oc3ncn(CCCn4ccnc4)c(=N)c32)cc1OC (stereo not given)	> 1	> 1	> 1	> 2.5	> 1	> 1	> 2.5
CN(N=O)C1=C(NC2CCCCC2)C(=O)c2ccccc2C1=O	> 1	> 1	> 1	> 2.5	> 1	> 1	> 2.5
Cc1ccc(C(=O)c2oc3ccc4c(C)cc(=O)oc4c3c2C)cc1	> 1	> 1	> 1	> 2.5	> 1	> 1	> 2.5
CCCCCCc1cc2cc(-c3csc(C=Cc4ccccc4)n3)c(=O)oc2cc1O	> 1	> 1	> 1	> 2.5	> 1	> 1	> 2.5
CC(Oc1ccc(NC(=O)c2cccs2)cc1)C(=O)c1ccc(Cl)cc1 (stereo not given)	> 1	> 1	> 1	> 2.5	> 1	> 1	> 2.5
O=C(NC1CCN(Cc2ccccc2)CC1)c1cc(C(=O)NC2CCN(Cc3ccccc3)CC2)cc(C(=O)NC2CCN(Cc3ccccc3)CC2)c1	> 1	> 1	> 1	> 2.5	> 1	> 1	> 2.5
COc1ccc(-c2cn3c(C(=O)Nc4ccccc4Cl)c(-c4ccccc4)c4c3n2CCCC4)cc1	> 1	> 1	> 1	> 2.5	> 1	> 1	> 2.5
CCN(CC)CCNc1ccnc2cc3ccccc3cc12	> 1	> 1	> 1	> 2.5	> 1	> 1	> 2.5
COc1ccc(C=C2SC(Nc3ccc(F)cc3)=NC2=O)c(OC)c1	> 1	> 1	> 1	> 2.5	> 1	> 1	> 2.5
CCOc1cc2c(cc1OCC)C(c1cc(Cl)ccc1O)NCC2 (stereo not given)	> 1	> 1	> 1	> 2.5	> 1	> 1	> 2.5
O=C(Cc1ccccc1)NC(c1ccc(Cl)cc1)c1c(O)ccc2ccccc12 (stereo not given)	> 1	> 1	> 1	> 2.5	> 1	> 1	> 2.5
c1ccc(CNc2nc(Nc3ccccc3)nc3ccccc23)cc1	> 1	> 1	> 1	> 2.5	> 1	> 1	> 2.5
Cc1cccc(N2C(=O)C3C(C2=O)C2(c4ccccc4)C(=O)C3(c3ccccc3)C(c3ccc4c(c3)OCO4)=C2c2ccc3c(c2)OCO3)c1 (stereo not given)	> 1	> 1	> 1	> 2.5	> 1	> 1	> 2.5
COc1ccc2sc(N(Cc3cccnc3)C(=O)c3ccc(C#N)cc3)nc2c1	> 1	> 1	> 1	> 2.5	> 1	> 1	> 2.5
CC1CC2=C(CC1CNCCCN(C)C)C(C)(C)CCC2 (stereo not given)	> 1	> 1	> 1	> 2.5	> 1	> 1	> 2.5
CN(C)c1ccc(N=Cc2ccc(N3CCOCC3)cc2)cc1	> 1	> 1	> 1	> 2.5	> 1	> 1	> 2.5
CCCCc1c(CCC)c(=N)c2ccccc2n1C	> 1	> 1	> 1	> 2.5	> 1	> 1	> 2.5
